Test results from patent US20130172345A1, “1-ACYL-4-(PHENOXY, BENZYLOXY, OR PHENYLAMINO)-1,2,3,4-TETRAHYDROQUINOLINE DERIVATIVES” (KOWA COMPANY, LTD., priority 2007, published 2013).
Structures can show the parent of a compound that is named as a salt.

Assays:
[1] = system: K562 cells, human proerythroblast cells; test: Hemoglobin production in K562 cells (fluorescence of the porphyrin ring); assay type: cell-based; details: 144 h, test compound 6 μM, 3+3 days, non-stimulated state = 100%, read-out: production amount of hemoglobin, % of control (6 μM)
Description: K562 cells (obtained from ATCC), which are human proerythroblast cells, were seeded at a density of 1×10^5 cells/1 mL on a 24-well plate by using complete medium (RPMI-1640 medium comprising 10% bovine fetal serum). After adding the test compound having 1000× concentration (1 μL), the cells were incubated for three days in a CO2 incubator (37° C., 5% CO2). After exchanging the medium, the cells were further incubated for three days. Then, the cells were collected and counted. After adjusting them to have 3×10^5 cells, the amount of hemoglobin produced in the cells was determined by measuring fluorescence of the porphyrin ring. Specifically, the cells which had been collected by centrifugation were suspended in 2 M oxalic acid solution (500 μL) and boiled for 30 minutes under heating. After cooling the cells, the fluorescence intensity was measured by Fluorescence micro plate reader (Spectra MAX GeminiEM, manufactured by Molecular Devices Corporation) ([…]). When hemoglobin amount in non-stimulated state, i.e., without addition of any compound, was 100%, the production amount of hemoglobin induced by each compound was calculated (% of control).

[2] = system: HepG2 cells originating from human liver cancer; test: EPO production in HepG2 cells (EPO ELISA of culture supernatant, 4% oxygen, 48 hrs); assay type: cell-based; details: test compound 3 μM, oxygen 4%, non-stimulated state = 100%, read-out: EPO production amount, % of control (3 μM)
Description: HepG2 cells originating from human liver cancer were seeded at a density of 1×10^4 cells per well on a 24-well plate by using minimum essential medium (MEM, manufactured by Sigma) comprising 10% bovine fetal serum. Next day, the medium was exchanged with Dulbecco's modified eagle medium (DMEM, manufactured by Sigma) comprising 10% bovine fetal serum lacking phenol red. Then, the test compound dissolved in DMSO was added thereto to obtain the final concentration of 3 μM or 10 μM while having 400 μl of the medium per well. The cells were incubated for 48 hrs in a CO2 incubator which had been adjusted to have oxygen concentration of 4%, followed by collecting the culture supernatant. The EPO concentration in the culture supernatant was immediately measured by using EPO ELISA kit (manufactured by Roche Diagnostics K.K.). Specific procedures were carried out according to the manufacturer's protocol included in the kit.
When EPO production amount in non-stimulated state, i.e., without addition of any compound, was 100%, the EPO production amount induced by each compound was calculated (% of control).

Compound	activity at 6 µM [1] [%]	activity at 3 µM [2] [%]
CC(=O)N1c2c(F)cccc2[C@H](Nc2ccccc2F)C[C@@H]1C (relative stereo) [Compound 4, cis-1-acetyl-8-fluoro-4-[(2-fluorophenyl)amino]-2-methyl-1,2,3,4-tetrahydroquinoline]	92	163
C[C@H]1C[C@@H](Nc2ccc(F)cc2)c2cc(F)ccc2N1C(=O)C1CCCCC1 (relative stereo) [Compound 6, cis-1-cyclohexanecarbonyl-6-fluoro-4-[(4-fluorophenyl)amino]-2-methyl-1,2,3,4-tetrahydroquinoline]	326	225
CC(=O)N1c2cc(C#N)ccc2[C@H](Nc2ccccc2)C[C@@H]1C (relative stereo) [Compound 7, cis-1-acetyl-7-cyano-2-methyl-4-phenylamino-1,2,3,4-tetrahydroquinoline]	260	261
CC(=O)N1c2ccccc2[C@H](Nc2ccccc2F)C[C@@H]1C (relative stereo) [Compound 22, cis-1-acetyl-4-[(2-fluorophenyl)amino]-2-methyl-1,2,3,4-tetrahydroquinoline]	383	150
CC(=O)N1c2cc(Br)ccc2[C@H](Nc2ccccc2)C[C@@H]1C (relative stereo) [Compound 23, cis-1-acetyl-7-bromo-2-methyl-4-phenylamino-1,2,3,4-tetrahydroquinoline]	544	135
CC(=O)N1c2ccccc2[C@H](Oc2ccccc2)C[C@@H]1C (relative stereo) [Compound 26, cis-1-acetyl-2-methyl-4-phenoxy-1,2,3,4-tetrahydroquinoline]	188	214
CC(=O)N1c2ccccc2[C@H](Oc2ccc(F)cc2)C[C@@H]1C (relative stereo) [Compound 27, cis-1-acetyl-4-(4-fluorophenoxy)-2-methyl-1,2,3,4-tetrahydroquinoline]	281	292
CC(=O)N1c2ccc(C)cc2C(Nc2ccc(C)cc2)CC1C (stereo not drawn) [Compound 2, 1-acetyl-2,6-dimethyl-4-[(4-methylphenyl)amino]-1,2,3,4-tetrahydroquinoline]	–	167
CC(=O)N1c2ccccc2C(Nc2ccc(O)cc2)CC1C (stereo not drawn) [Compound 24, cis-1-acetyl-4-[(4-hydroxyphenyl)amino]-2-methyl-1,2,3,4-tetrahydroquinoline.hydrochloride]	–	117
CC(=O)N1c2ccccc2C(Nc2ccc(-c3ccccc3)cc2)CC1C (stereo not drawn) [Compound 25, 1-acetyl-2-methyl-4-[(1,1′-biphenyl-4-yl)amino]-1,2,3,4-tetrahydroquinoline]	–	242
CC(=O)N1c2ccc(C(N)=O)cc2C(Nc2ccc(Cl)cc2)CC1C (stereo not drawn) [Compound 43, 1-acetyl-4-[(4-chlorophenyl)amino]-2-methyl-1,2,3,4-tetrahydroquinoline-6-carboxamide]	–	452
CC(=O)N1c2ccccc2C(Nc2ccccc2C)CC1C (stereo not drawn) [Compound 49, 1-acetyl-4-[(2-methylphenyl)amino]-2-methyl-1,2,3,4-tetrahydroquinoline]	–	271
CC(=O)N1c2ccccc2C(Nc2cccc(C)c2)CC1C (stereo not drawn) [Compound 50, 1-acety1-4-[(3-methylphenyl)amino]-2-methyl-1,2,3,4-tetrahydroquinoline]	–	289
CC(=O)N1c2ccccc2C(Nc2ccc(C)cc2)CC1C (stereo not drawn) [Compound 51, 1-acety1-4-[(4-methylphenyl)amino]-2-methyl-1,2,3,4-tetrahydroquinoline]	–	239
CC(=O)N1c2ccccc2C(Nc2ccc(C(F)(F)F)cc2)CC1C (stereo not drawn) [Compound 52, 1-acetyl-2-methyl-4-[(4-trifluoromethylphenyl)amino]-1,2,3,4-tetrahydroquinoline]	–	314
CC(=O)N1c2ccccc2C(Oc2ccc(N3CCOCC3)cc2)CC1C (stereo not drawn) [Compound 55, 1-acetyl-4-(4-morpholinophenoxy)-2-methyl-1,2,3,4-tetrahydroquinoline]	–	134

Compound	activity at 6 µM [1] [%]	activity at 3 µM [2] [%]
CCOC(=O)Cc1ccc(NC2CC(C)N(C(C)=O)c3ccccc32)cc1 (stereo not drawn) [Compound 70, 1-acetyl-4-[(4-ethoxycarbonylmethylphenyl)amino]-2-methyl-1,2,3,4-tetrahydroquinoline]	–	165
CC(=O)N1c2ccc(N3CCN(S(C)(=O)=O)CC3)cc2C(Nc2ccc(Cl)cc2)CC1C (stereo not drawn) [Compound 80, 1-acetyl-6-[(4-methanesulfonyl)piperazino]-4-[(4-chlorophenyl)amino]-2-methyl-1,2,3,4-tetrahydroquinoline]	–	219
CC(=O)N1c2ccc(N3CCN(C(C)C)CC3)cc2C(Nc2ccc(Cl)cc2)CC1C (stereo not drawn) [Compound 81, 1-acetyl-4-[(4-chlorophenyl)amino]-6-[(4-isopropyl)piperazino]-2-methyl-1,2,3,4-tetrahydroquinoline]	–	234
CC(=O)N1CCN(c2ccc3c(c2)C(Nc2ccc(N4CCOCC4)cc2)CC(C)N3C(C)=O)CC1 (stereo not drawn) [Compound 94, cis-1-acetyl-6-[(4-acetyl)piperazino]-2-methyl-4-[(4-morpholinophenyl)amino]-1,2,3,4-tetrahydroquinoline.3 hydrochloride]	199	–
CC(=O)Nc1ccc2c(c1)C(Nc1ccc(Cl)cc1)CC(C)N2C(C)=O (stereo not drawn) [Compound 96, 1-acetyl-6-acetylamino-4-[(4-chlorophenyl)amino]-2-methyl-1,2,3,4-tetrahydroquinoline]	530	–
CC(=O)N1c2ccc(NS(C)(=O)=O)cc2C(Nc2ccc(N3CCOCC3)cc2)CC1C (stereo not drawn) [Compound 98, 1-acetyl-6-methanesulfonylamino-2-methyl-4-[(4-morpholinophenyl)amino]-1,2,3,4-tetrahydroquinoline]	56	–
CCOC(=O)Cc1ccc(NC2CC(C)N(C(C)=O)c3ccc(NS(C)(=O)=O)cc32)cc1 (stereo not drawn) [Compound 99, 1-acetyl-6-methanesulfonylamino-2-methyl-4-[(4-ethoxycarbonylmethylphenyl)amino]-1,2,3,4-tetrahydroquinoline]	69	–
CC(=O)N1c2ccc(C(=O)O)cc2C(Nc2ccc(F)cc2)CC1C (stereo not drawn) [Compound 100, 1-acetyl-4-[(4-fluorophenyl)amino]-2-methyl-1,2,3,4-tetrahydroquinoline-6-carboxylic acid]	105	–
CCOC(=O)c1ccc2c(c1)C(Nc1ccc(NS(C)(=O)=O)cc1)CC(C)N2C(C)=O (stereo not drawn) [Compound 101, ethyl 1-acetyl-4-[(4-methanesulfonylaminophenyl)amino]-2-methyl-1,2,3,4-tetrahydroquinoline-6-carboxylate]	508	–
COC(=O)c1cc(NC2CC(C)N(C(C)=O)c3ccccc32)ccc1O (stereo not drawn) [Compound 108, 1-acetyl-4-[(4-hydroxy-3-methoxycarbonylphenyl)amino]-2-methyl-1,2,3,4-tetrahydroquinoline.hydrochloride]	399	–
CC(=O)N1c2ccc(N3CC(C)OC(C)C3)cc2C(Nc2ccc(NS(C)(=O)=O)cc2)CC1C (stereo not drawn) [Compound 110, 1-acetyl-6-[cis-2,6-dimethylmorpholin-4-yl]-4-[(4-methanesulfonylaminophenyl)amino]-2-methyl-1,2,3,4-tetrahydroquinoline.2 hydrochloride]	211	–
CC(=O)N1c2ccc(C(=O)NN)cc2C(Nc2ccc(Cl)cc2)CC1C (stereo not drawn) [Compound 115, 1-acetyl-4-[(4-chlorophenyl)amino]-2-methyl-1,2,3,4-tetrahydroquinoline-6-carbohydrazide]	163	–
CC(=O)N1c2ccc(C#N)cc2C(Nc2ccc(Cl)cc2)CC1C (stereo not drawn) [Compound 117, 1-acetyl-4-[(4-chlorophenyl)amino]-6-cyano-2-methyl-1,2,3,4-tetrahydroquinoline]	–	204
CONC(=O)c1ccc2c(c1)C(Nc1ccc(Cl)cc1)CC(C)N2C(C)=O (stereo not drawn) [Compound 118, 1-acetyl-4-[(4-chlorophenyl)amino]-N-methoxy-2-methyl-1,2,3,4-tetrahydroquinoline-6-carboxamide.hydrochloride]	–	138
CC(=O)N1c2ccc(-c3nc(=O)o[nH]3)cc2C(Nc2ccc(Cl)cc2)CC1C (stereo not drawn) [Compound 120, 1-acetyl-4-[(4-chlorophenyl)amino]-2-methyl-6-[1,2,4-oxadiazol-5(2H)-on-3-yl]-1,2,3,4-tetrahydroquinoline]	188	–
CC(=O)N1c2ccc(F)cc2C(Nc2ccc(CC(=O)O)cc2)CC1C (stereo not drawn) [Compound 123, 1-acetyl-4-[(4-carboxymethylphenyl)amino]-6-fluoro-2-methyl-1,2,3,4-tetrahydroquinoline]	–	142
